Assays:
db/db mice [1] = assay: Food intake amount and body weight, 5 week-continuous oral administration in drinking water, db/db mice; assay type: in vivo, mouse; details: enantiomer 1.1 mg/dl in drinking water, oral, 5 weeks; for body weight increase / food intake amount: vs control
Description: 5 week-old male C57BL/KsJ-db/db mice (db/db mice: body weight 19 to 25 g, Japan SLC, Inc.) were purchased and individually fed in tip cages. For the db/db mice, normal pellet diet (CE-2) was administered under free water intake and free food intake. A body weight and a food intake amount over 24 hours were measured every day from the start of feeding. On day 3 after the start of feeding, blood was taken from an orbit after 6 hour-fasting and a blood glucose level and a blood insulin concentration were measured. The db/db mice were divided into three groups (10 mice per each group) so that a body weight, a 24 hour-food intake amount, a blood glucose level, and a blood insulin concentration were equal, and defined to be a control group, a low concentration baclofen treated group, and a high concentration baclofen treated group. After division into the groups, from day 5 after the start of feeding, (±)-baclofen was dissolved in drinking water and 5 week-continuous oral administration to the baclofen treated groups was started. (±)-baclofen was dissolved in drinking water at a concentration of 1.1 mg/dl in the low concentration treated group and at a concentration of 2.7 mg/dl in the high concentration treated group. A food intake amount and a body weight were measured over time during the period of 5 week-administration of (±)-baclofen, blood was taken after the end of the 5-week administration, and the db/db mice were sacrificed by cervical luxation. Brains, epididymal white adipose tissues, subcutaneous white adipose tissues and brown adipose tissues were surgically removed. The brains and brown adipose tissues were frozen in dry ice and liquid nitrogen immediately after the removal and then preserved at −80° C. The epididymal white adipose tissues and subcutaneous white adipose tissues were measured in weights, and then fixed in 4% formaldehyde and preserved at 4° C.
5 week-old male C57BL/KsJ-db/db mice (db/db mice: body weight 19 to 25 g, Japan SLC, Inc.) were purchased and individually fed in tip cages. For the db/db mice, normal pellet diet (CE-2) was administered under free water intake and free food intake. A body weight and a food intake amount over 24 hours were measured everyday from the start of feeding. On day 3 after the start of feeding, blood was taken from an orbit after 6 hour-fasting and a blood glucose level and a blood insulin concentration were measured. […] After division into the groups, from day 5 after the start of feeding, R-baclofen and S-baclofen were dissolved in drinking water and 5 week-continuous oral administration was started. […] A food intake amount and a body weight were measured over time, and a rectal temperature was measured 5 weeks after the start of the administration. Blood was taken after the 5-week administration of baclofen, and the db/db mice were sacrificed by cervical luxation.
5 week-old male C57BL/KsJ-db/db mice (db/db mice: body weight 19 to 25 g, Japan SLC, Inc.) were purchased and individually fed in tip cages. Normal pellet diet (CE-2) was administered to the db/db mice under free water intake and free food intake. A body weight and a food intake amount over 24 hours were measured every day from the start of feeding. On day 3 after the start of feeding, blood was taken from an orbit after 6 hour-fasting, and a blood glucose level and a blood insulin concentration were measured. The db/db mice were divided into five groups (10 mice per each group) so that a body weight, a 24 hour-food intake amount, a blood glucose level, and a blood insulin concentration were equal, and defined to be a control group and baclofen treated groups. (±)-baclofen was dissolved in drinking water at respective concentrations of 4×10^−6 M, 10×10^−6 M, 40×10^−6 M, and 100×10^−6 M, and continuously orally administered to the baclofen treated groups for 5 weeks. A food intake amount, a body weight and a water-drinking amount were measured over time during the period of 5 week-administration of (±)-baclofen. […]

db/db mice [2] = assay: Rectal temperature, oxygen consumption and motor activity, db/db mice; assay type: in vivo, mouse; details: enantiomer 1.1 mg/dl in drinking water for 5 weeks, measured at 20 o'clock for 3 days
Description: 5 week-old male C57BL/KsJ-db/db mice (db/db mice: body weight 19 to 25 g, Japan SLC, Inc.) were purchased and individually fed in tip cages. For the db/db mice, normal pellet diet (CE-2) was administered under free water intake and free food intake. A body weight and a food intake amount over 24 hours were measured everyday from the start of feeding. On day 3 after the start of feeding, blood was taken from an orbit after 6 hour-fasting and a blood glucose level and a blood insulin concentration were measured. The db/db mice were divided into three groups (10 mice per each group) so that a body weight, a 24 hour-food intake amount, a blood glucose level, and a blood insulin concentration were equal, and defined to be a control group, an R-baclofen treated group, and an S-baclofen treated group. […] After division into the groups, from day 5 after the start of feeding, R-baclofen and S-baclofen were dissolved in drinking water and 5 week-continuous oral administration was started. Both of R-baclofen and S-baclofen were dissolved in drinking water at a concentration of 1.1 mg/dl used in the low concentration treated group in the experiment of baclofen racemic mixture administration. A food intake amount and a body weight were measured over time, and a rectal temperature was measured 5 weeks after the start of the administration. Blood was taken after the 5-week administration of baclofen, and the db/db mice were sacrificed by cervical luxation.
R-baclofen and S-baclofen were administered to db/db/mice and (±)-baclofen was administered to db/^+m mice respectively for 5 weeks, and rectal temperatures were then continuously measured for 3 days at 20 o'clock immediately before the dark period when feed intake was started in the mice. The method of measuring rectal temperatures was as follows. That is, the rectal temperatures were measured by using a digital thermistor (manufactured by NATSUME SEISAKUSHO CO., LTD.).
(±)-baclofen was orally administered to db/db mice and DIO mice for 5 weeks and rectal temperatures were measured 5 weeks after the start of the administration, and oxygen consumptions and motor activity were measured by using a small animal metabolism measuring system (model MK-5000: Muromachi Kikai Co., Ltd.).

**Q.** Which results are given for `Cl.NC[C@H](CC(=O)O)c1ccc(Cl)cc1` [R-baclofen, R(+)-Baclofen hydrochloride]?
**A.** time after start of administration from which body weight increase suppression was significant (db/db mice [1]): 2 weeks; time after start of administration from which food intake suppression was significant (db/db mice [1]): 2 weeks; body weight increase (db/db mice [1]): significantly suppressed; food intake amount (db/db mice [1]): significantly suppressed; rectal temperature (db/db mice [2]): significantly increased

**Q.** With `Cl.NC[C@@H](CC(=O)O)c1ccc(Cl)cc1` [S-baclofen, S(−)-Baclofen hydrochloride] as the compound, how does the “time after start of administration from which body weight increase suppression was significant” value (db/db mice [1]) read?
**A.** 5 weeks

**Q.** And the “time after start of administration from which food intake suppression was significant” value (db/db mice [1])?
**A.** 5 weeks

**Q.** And the body weight increase (db/db mice [1])?
**A.** significant suppression

**Q.** What about the food intake amount (db/db mice [1]) of the same compound?
**A.** significant suppression

**Q.** What about the rectal temperature (db/db mice [2]) of the same compound?
**A.** significantly increased
